Results from PMC5808083, “Carfilzomib resistance due to ABCB1/MDR1 overexpression is overcome by nelfinavir and lopinavir in multiple myeloma” (Leukemia, 2017).
pIC50: −log10 of the molar value. Read-outs that look alike come from different tables or passages of the source.

Legend:
AMO-BTZ = tested on: T1, AMO-BTZ; assay: cells; set-up: species or system AMO-1, AMO-CFZ and AMO-CFZ clones #1 and #7; cell viability, MTS tetrazolium (CellTiter 96 AQueous One Solution), continuous treatment; settings: Homo sapiens, AMO1, 48 h
T1 construct: AMO-1 derived, bortezomib-adapted
Description: (§1) Generation of AMO-CFZ Ub-G67V-GFP cells AMO-CFZ cells were electroporated with a plasmid containing Ub-G76V-GFP [1] (obtained from Nico Dantuma; Addgene plasmid #11941) and subsequently cultured in the presence of selecting antibiotic G418 (500ng/ml, Gibco/Invitrogen, MA, USA). Subclones were obtained using MethoCult (StemCell Technologies, USA) and the clone with highest accumulation of fluorescence after BTZ treatment was chosen for further analysis. Assessment of cell viability Viability of cell lines was determined after 48h of treatment by MTS tetrazolium compound using CellTiter 96® AQueous One Solution) (Promega, WI, USA) according to manufactures protocol. PgP-Glo assay PgP-Glo assay (Promega, WI, USA) was performed according to manufacturer recommendations. Figure 2 Comparison of dose–response of AMO-1 (sensitive) vs AMO-BTZ and AMO-CFZ (resistant) cells treated with PIs (BTZ and CFZ). (a) Residual activity of proteasome subunits visualized by activity-based probe labeling in intact cells after 1 h pulse treatment with indicated PIs. (b) Cell viability was measured after 48 hours of continuous treatment. Corresponding IC50 values are presented in Supplementary Table S2. Figure 7 Sensitivity profile of ABCB1 inhibitors co-treatment with PIs used in the clinic or in clinical development in AMO-1, AMO-BTZ and AMO-CFZ cell lines. […]

[1] = tested on: T2, AMO-CFZ clone #1 (upregulated ABCB1); assay: cells; set-up: species or system AMO-CFZ clones 1 and 7; Cytotoxicity dose-response of myeloma drugs on AMO-CFZ clones with or without ABCB1, IC50; settings: ABCB1 upregulated clone #1
T2 construct: AMO-1 derived, carfilzomib-adapted, clone 1 CRISPR/Cas9 clone retaining ABCB1 overexpression
Source text: (§2) To dissect the role of ABCB1 overexpression for the activity of standard myeloma drugs we compared the cytotoxic effects of such drugs on AMO-CFZ cells with (clone #1) or without such ABCB1 expression (clone 7) (Figure 3c and Supplementary Table S4). To score for good versus poor ABCB1-substrate myeloma drugs, we calculated the ratio of IC50 values between the ABCB1-containing and the ABCB1-deficient clone for each of the myeloma drug. […] (a) Western blot evaluation of the ABCB1 depletion in AMO-CFZ clones obtained by CRISPR/Cas9 genome editing tool. (b) Dose–response of AMO-CFZ clones with depleted ABCB1 to CFZ. Corresponding IC50 values are presented in Supplementary Table S3. (c) Dose–response of selected AMO-CFZ clones 1 and 7 to CFZ and convectional drugs used in the treatment of MM. (d) Dose–response of AMO-CFZ clones 1 and 7 to approved PI or those in clinical development. Corresponding IC50 values are presented in Supplementary Table S4. To directly address the functional role of ABCB1 for CFZ resistance, we eliminated ABCB1 protein in AMO-CFZ cells by CRISPR/Cas9 (for example, clone 7) (Figure 3a). We observed an inverse correlation between the levels of ABCB1 and myeloma cell sensitivity to CFZ (Figure 3b, Supplementary Table S3). […] Overexpressed ABCB1 is therefore a therapeutic target for CFZ-resistant myeloma.

[2] = tested on: T3, AMO-CFZ clone #7 (depleted ABCB1); assay: cells; set-up: species or system AMO-CFZ clones 1 and 7; Cytotoxicity dose-response of myeloma drugs on AMO-CFZ clones with or without ABCB1, IC50; settings: ABCB1 depleted clone #7
T3 construct: AMO-1 derived, carfilzomib-adapted, clone 7 ABCB1 depleted by CRISPR/Cas9 (subtotal elimination)
Source text: as §2

AMO-CFZ = tested on: T4, AMO-CFZ; assay: cells; set-up: species or system AMO-1, AMO-BTZ, AMO-CFZ and AMO-CFZ clones #1 and #7; cell viability, MTS tetrazolium (CellTiter 96 AQueous One Solution), continuous treatment; settings: Homo sapiens, AMO1, 48 h; for IC50: PI alone
T4 construct: AMO-1 derived, carfilzomib-adapted, ABCB1 overexpressing
Description: (§3) Generation of AMO-CFZ Ub-G67V-GFP cells AMO-CFZ cells were electroporated with a plasmid containing Ub-G76V-GFP [1] (obtained from Nico Dantuma; Addgene plasmid #11941) and subsequently cultured in the presence of selecting antibiotic G418 (500ng/ml, Gibco/Invitrogen, MA, USA). Subclones were obtained using MethoCult (StemCell Technologies, USA) and the clone with highest accumulation of fluorescence after BTZ treatment was chosen for further analysis. Assessment of cell viability Viability of cell lines was determined after 48h of treatment by MTS tetrazolium compound using CellTiter 96® AQueous One Solution) (Promega, WI, USA) according to manufactures protocol. PgP-Glo assay PgP-Glo assay (Promega, WI, USA) was performed according to manufacturer recommendations.  Figure 2 Comparison of dose–response of AMO-1 (sensitive) vs AMO-BTZ and AMO-CFZ (resistant) cells treated with PIs (BTZ and CFZ). (a) Residual activity of proteasome subunits visualized by activity-based probe labeling in intact cells after 1 h pulse treatment with indicated PIs. (b) Cell viability was measured after 48 hours of continuous treatment. Corresponding IC50 values are presented in Supplementary Table S2.  Figure 7 Sensitivity profile of ABCB1 inhibitors co-treatment with PIs used in the clinic or in clinical development in AMO-1, AMO-BTZ and AMO-CFZ cell lines. Dose–response curves of PI co-treated with NFV (10 μM) and LPV (10 μM). Corresponding IC50 values are presented in Supplementary Table S7.

AMO-1 = assay: cells; set-up: species or system AMO-BTZ, AMO-CFZ and AMO-CFZ clones #1 and #7; cell viability, MTS tetrazolium (CellTiter 96 AQueous One Solution), continuous treatment; settings: Homo sapiens, AMO1, 48 h
Description: as §1

[3] = tested on: T2, AMO-CFZ clone #1 (upregulated ABCB1); assay: cells; set-up: species or system AMO-1, AMO-BTZ, AMO-CFZ and AMO-CFZ clones #1 and #7; cell viability, MTS tetrazolium (CellTiter 96 AQueous One Solution), continuous treatment; settings: Homo sapiens, AMO1, 48 h; CFZ alone
Description: as §3

[4] = tested on: T2, AMO-CFZ clone #1 (upregulated ABCB1); assay: cells; set-up: species or system AMO-1, AMO-BTZ, AMO-CFZ and AMO-CFZ clones #1 and #7; cell viability, MTS tetrazolium (CellTiter 96 AQueous One Solution), continuous treatment; settings: Homo sapiens, AMO1, 48 h; CFZ alone; remark: listed apart in the source
Description: as §1

ABCB1 = ABCB1 (Homo sapiens, UniProt P08183); assay: MitoTracker Green FM and MVB003 efflux (flow cytometry) in ABCB1-overexpressing AMO-CFZ cells
ABCB1, sequence (P08183 whole entry): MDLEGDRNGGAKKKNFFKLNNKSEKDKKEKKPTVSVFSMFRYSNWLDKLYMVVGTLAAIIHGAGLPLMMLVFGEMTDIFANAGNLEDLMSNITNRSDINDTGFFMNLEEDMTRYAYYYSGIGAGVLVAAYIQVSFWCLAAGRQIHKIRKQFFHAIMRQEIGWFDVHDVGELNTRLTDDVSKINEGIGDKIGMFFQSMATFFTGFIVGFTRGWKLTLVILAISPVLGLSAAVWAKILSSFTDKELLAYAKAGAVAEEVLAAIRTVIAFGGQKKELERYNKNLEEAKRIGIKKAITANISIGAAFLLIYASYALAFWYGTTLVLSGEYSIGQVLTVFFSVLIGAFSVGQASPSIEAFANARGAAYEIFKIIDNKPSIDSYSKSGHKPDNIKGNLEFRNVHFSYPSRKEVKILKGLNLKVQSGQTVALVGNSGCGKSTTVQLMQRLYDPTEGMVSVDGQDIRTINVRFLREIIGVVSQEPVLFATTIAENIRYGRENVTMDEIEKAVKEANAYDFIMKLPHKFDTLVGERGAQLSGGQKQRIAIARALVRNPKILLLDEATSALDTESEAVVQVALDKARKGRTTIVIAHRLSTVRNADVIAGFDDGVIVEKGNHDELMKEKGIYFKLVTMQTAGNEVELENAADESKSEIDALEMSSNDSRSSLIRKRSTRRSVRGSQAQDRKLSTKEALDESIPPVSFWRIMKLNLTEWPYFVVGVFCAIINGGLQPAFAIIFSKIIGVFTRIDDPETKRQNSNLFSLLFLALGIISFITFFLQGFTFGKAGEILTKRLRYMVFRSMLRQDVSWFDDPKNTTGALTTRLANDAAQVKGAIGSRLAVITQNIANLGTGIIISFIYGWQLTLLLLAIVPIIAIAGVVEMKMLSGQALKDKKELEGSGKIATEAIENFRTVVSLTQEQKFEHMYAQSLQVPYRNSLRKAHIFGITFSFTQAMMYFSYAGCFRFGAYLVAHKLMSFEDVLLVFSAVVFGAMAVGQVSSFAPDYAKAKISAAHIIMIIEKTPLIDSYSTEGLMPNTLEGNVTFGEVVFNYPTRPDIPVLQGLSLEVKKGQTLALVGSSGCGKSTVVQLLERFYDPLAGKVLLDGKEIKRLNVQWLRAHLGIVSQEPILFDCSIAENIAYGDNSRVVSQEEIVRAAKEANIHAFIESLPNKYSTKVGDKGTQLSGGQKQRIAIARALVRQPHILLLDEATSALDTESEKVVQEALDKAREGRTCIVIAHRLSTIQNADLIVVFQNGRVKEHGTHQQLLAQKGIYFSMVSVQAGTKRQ

| SMILES | pIC50 [1] | pIC50 [2] | IC50 (AMO-CFZ) [nM] | also measured |
| --- | --- | --- | --- | --- |
| CC(C)C[C@H](NC(=O)[C@H](Cc1ccccc1)NC(=O)c1cnccn1)B(O)O [BTZ, bortezomib] | 7.16 | 7.57 | 156 | pIC50 (AMO-BTZ; read-out: BTZ): 5.87; pIC50 (AMO-CFZ; read-out: BTZ): 7.05; pIC50 (AMO-1; read-out: BTZ): 8.20 |
| CC(C)C[C@H](NC(=O)[C@H](CCc1ccccc1)NC(=O)CN1CCOCC1)C(=O)N[C@@H](Cc1ccccc1)C(=O)N[C@@H](CC(C)C)C(=O)[C@@]1(C)CO1 [CFZ, carfilzomib] | 6.21 | 7.11 | – | pIC50 (AMO-BTZ; read-out: CFZ): 7.17; pIC50 (AMO-CFZ; read-out: CFZ): 6.05; IC50 [3]: 824 nM; IC50 [4]: 796 nM; pIC50 (AMO-1; read-out: CFZ): 8.32 |
| CC(C)C[C@H](NC(=O)[C@@H](NC(=O)c1cccc(-c2ccccc2)n1)[C@@H](C)O)B(O)O [Delanzomib] | 6.53 | 7.09 | 1040 | – |
| CC(C)C[C@H](NC(=O)CNC(=O)c1cc(Cl)ccc1Cl)B(O)O [Ixazomib] | 6.16 | 6.46 | 1280 | – |
| C[C@@]12OC(=O)[C@]1([C@@H](O)[C@@H]1C=CCCC1)NC(=O)[C@@H]2CCCl [Marizomib] | 7.21 | 7.48 | – | – |
| COC[C@H](NC(=O)c1cnc(C)s1)C(=O)N[C@@H](COC)C(=O)N[C@@H](Cc1ccccc1)C(=O)[C@@]1(C)CO1 [Oprozomib] | 5.83 | 6.66 | 1320 | – |
| Cc1[nH]c2ccccc2c1CCNCc1ccc(/C=C/C(=O)NO)cc1 [Panobinostat] | 6.66 | 7.31 | – | – |
| COC(=O)[C@H]1[C@H]2C[C@@H]3c4[nH]c5cc(OC)ccc5c4CCN3C[C@H]2C[C@@H](OC(=O)c2cc(OC)c(OC)c(OC)c2)[C@@H]1OC [RSP, reserpine] | – | – | – | MitoTracker Green FM and MVB003 efflux (flow cytometry) in ABCB1-overexpressing (ABCB1): Addition of VPM or reserpine (RSP) in the micromolar range led to a sizable, dose-dependent increase in cellular fluorescence |
